Data: patent US10954253B2, “1,2-dihydro-3H-pyrazolo[3,4-d]pyrimidin-3-one derivative as Wee1 inhibitor” (SHIJIAZHUANG SAGACITY NEW DRUG DEVELOPMENT CO., LTD., priority 2017, dated 2021)
In brackets after ≈: the same amount, converted by molar mass. Like-named read-outs stand apart in the source and are kept apart here. Each block holds one compound with its values, some of them ahead of it.

How the values were obtained:
[1] = Pharmacokinetic evaluation in BALB/c mice after intravenous and oral administration; assay type: in vivo; details: mouse, plasma, BALB/c mice (female), single intravenous injection and oral administration; for clearance: read-out: Clearance rate; for AUC: read-out: Concentration integral AUC; for half-life: read-out: Half-life T1/2 (converted); for bioavailability: read-out: bioavailability F
Description: Experimental objective: pharmacokinetics evaluation of the compound in BALB/c nude mice.
The rodent pharmacological characteristics of the compound after intravenous administration and oral administration were tested by a standard protocol, the candidate compound in the experiment was formulated into a clear solution, and the mice were administered by a single intravenous injection and oral administration. The intravenous and oral vehicles are a certain proportion of aqueous hydroxypropyl 3-cyclodextrin or physiological saline solution.

[2] = target: Wee1 (Homo sapiens (Human), UniProt P30291); assay: In vitro enzymatic inhibitory activity (33P-ATP filter-binding kinase assay, MBP substrate); assay type: biochemical; details: Wee-1 150 nM, MBP 20 μM
Procedure, shortened: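 Wee1 at 150 nM with 20 μM MBP substrate in pH 7.5 HEPES buffer (10 mM MgCl2, 2 mM DTT, 1% DMSO) was preincubated 20 min at RT with compounds in a 10-point 3-fold dilution series. The reaction was started with ^33P-ATP and run 2 h at RT. Kinase activity was measured by filter binding.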

[3] = Thermodynamic solubility determination; assay type: physicochemical; details: for solubility at 24 h: buffer, 22 °C, aqueous buffer, thermodynamic from solid
Description: No less than 2 mg sample powder was weighted in a Whatman miniuniprep vial. If the experiment required to test the thermodynamic solubility of the sample in multiple buffer solutions, then separate vial was required for each test.
[…] After addition of the buffer, the Whatman filter cap of the miniuniprep is mounted and pressed until it was above the liquid level to allow the filter to contact with the buffer solution during shaking. The solubility sample was vortexed for 2 minutes. And the solution phenomenon was recorded. Then the vial was shaked at room temperature (about 22 to 25° C.) for 24 hours at a speed of 550 rpm. And the Whatman Miniunipreps filter cap was pressed to bottom to obtain the filtrate of the solubility solution of the sample. All sample vials should conduct filtration for the insoluble matter before and after and osmotic phenomenon. The […] was diluted 50 times to obtain a sample dilution.
Three UV standard solutions were injected from low to high concentrations into HPLC, and then dilution and supernatant of the test compounds were injected. The sample was injected and tested twice. Integration was conducted to the UV peaks. The standard curve was established and the thermodynamic solubility of the sample was calculated.

[4] = Tissue distribution (PK) in BALB/c nude mice bearing human colon cancer LoVo xenografts; assay type: in vivo; details: mouse, LoVo xenograft mice, oral 40 mg/kg twice a day for three weeks, after last administration
Description: (1) In vivo PD study of the compound used on tumors of human colon cancer LoVo cells subcutaneously xenografted to BALB/c nude mice model
Experimental method: the experimental animals used were BALB/c nude mice (provided by Shanghai Xipuer-Beikai Experimental animal CO., Ltd), 6-8 weeks old, weighting 18-22 g.
Human colon cancer LoVo cells, monolayer-cultured in vitro, culturing condition was Ham's F-12 medium supplemented with 10% fetal bovine serum, 100 U/mL penicillin, 100 μg/mL streptomycin and 2 mM glutamine, 37° C., 5% CO2. Conventional digestion treatment passage was done with trypsin-EDTA twice a week. When the cell saturation reached 80%-90%, the cells were collected, counted, and inoculated. 0.1 mL (10×106) of LoVo cells were subcutaneously inoculated into the right back of each nude mouse, and group administration was started when the average tumor volume reached 213 mm^3. The administration mode was oral administration, 40 mg/kg twice a day for three consecutive weeks.
After the last administration of the experiment, a portion of plasma, tumor, intestine, brain, lung, liver and pancreas was collected from the number 1-2 animals after 0.5 h of administration, and quick-froze for PK detection; a portion of plasma, tumor, intestine, brain, lung, liver and pancreas was collected from the number 3-4 animals after 2 h of administration, and quick-froze for PK detection; a portion of plasma, tumor, intestine, brain, lung, liver and pancreas was collected from the number 5-6 animals after 8 h of administration, and quick-froze for PK detection. The tumor, intestine, brain, lung, liver and pancreas were weighted separately and added 9 times volumes of homogenate MeOH/15 mM PBS (1:2, v:v) for homogenization. 20 μL sample was added into 300 μL of the stop buffer including internal standard for protein precipitation, and shaked to mix well. The mixture was centrifuged at 13,000 rpm for 10 minutes at 20-25° C., and 3 μL of the supernatant was taken for LCMS analysis.

Sequence of Wee1 (P30291 whole entry): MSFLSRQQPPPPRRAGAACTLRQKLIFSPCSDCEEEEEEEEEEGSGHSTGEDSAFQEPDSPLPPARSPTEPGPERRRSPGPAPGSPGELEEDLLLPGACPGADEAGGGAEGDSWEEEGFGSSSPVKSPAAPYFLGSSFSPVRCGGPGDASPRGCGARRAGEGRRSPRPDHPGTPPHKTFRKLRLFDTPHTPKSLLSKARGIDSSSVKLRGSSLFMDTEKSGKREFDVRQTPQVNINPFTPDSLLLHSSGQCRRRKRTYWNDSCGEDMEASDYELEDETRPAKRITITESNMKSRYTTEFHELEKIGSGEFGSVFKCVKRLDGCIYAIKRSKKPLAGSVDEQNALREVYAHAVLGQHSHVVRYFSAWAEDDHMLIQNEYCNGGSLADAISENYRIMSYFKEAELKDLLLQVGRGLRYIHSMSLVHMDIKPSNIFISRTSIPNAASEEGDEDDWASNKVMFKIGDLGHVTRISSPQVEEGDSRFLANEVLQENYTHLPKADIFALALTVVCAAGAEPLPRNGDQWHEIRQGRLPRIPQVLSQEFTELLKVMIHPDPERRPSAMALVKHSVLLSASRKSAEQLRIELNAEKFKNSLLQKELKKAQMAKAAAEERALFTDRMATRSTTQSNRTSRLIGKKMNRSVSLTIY

SMILES: C=CCn1c(=O)c2cnc(Nc3ccc(N4CCC5(CCN(C)CC5)CC4)cc3)nc2n1-c1cccc(C(=O)N(C)C)n1 [Embodiment 15, 6-(2-allyl-6-((4-(9-methyl-3,9-diazaspiro[5.5]undecan-3-yl)phenyl)amino)-3-oxo-2,3-dihydro-1H-pyrazolo[3,4-d]pyrimidin-1-yl)-N,N-dimethylpicolinamide]
clearance [1]: 57.1 mL/min/kg
AUC [1]: 1.73 µM·h
half-life [1]: 102 min
bioavailability [1]: 35.3%
IC50 [2]: 31.5 nM

SMILES: C=CCn1c(=O)c2cnc(Nc3ccc(N4CCC5(CCN(C)CC5)CC4)cc3)nc2n1-c1cccc(C(C)(C)O)n1 [Embodiment 29, 2-allyl-1-(6-(2-hydroxypropan-2-yl)pyridin-2-yl)-6-((4-(9-methyl-3,9-diazaspiro[5.5]undecan-3-yl)phenyl)amino)-1H-pyrazolo[3,4-d]pyrimidin-3(2H)-one]
clearance [1]: 51 mL/min/kg
AUC [1]: 2.15 µM·h
half-life [1]: 89.4 min
bioavailability [1]: 32.4%
IC50 [2]: 13.4 nM
solubility at 24 h ([3]; pH 6.5, shaken 24 hours at room temperature, read-out: Solubility (μM) pH 6.5): 1470 µM (≈ 835 µg/mL)
solubility at 24 h ([3]; pH 7.4, shaken 24 hours at room temperature, read-out: Solubility (μM) pH 7.4): 1050 µM (≈ 595 µg/mL)
solubility in water ([3]; in words, compared to AZD1775, pH=6.5 and pH=7.4): excellent solubility in water

SMILES: C=CCn1c(=O)c2cnc(Nc3ccc(N4CCC5(CCN(C(C)=O)CC5)CC4)cc3)nc2n1-c1cccc(C(C)(C)O)n1 [Embodiment 30, 6-((4-(9-acetyl-3,9-diazaspiro[5.5]undecan-3-yl)phenyl)amino)-2-allyl-1-(6-(2-hydroxypropan-2-yl)pyridin-2-yl)-1H-pyrazolo[3,4-d]pyrimidin-3(2H)-one]
AUC(0-t) ([4]; Brain): 2.12 µM·h
Cmax ([4]; Brain): 0.959 µM
Tmax ([4]; Brain): 0.5 h
AUC(0-t) ([4]; Colon): 402 µM·h
Cmax ([4]; Colon): 135 µM
Tmax ([4]; Colon): 0.5 h
AUC(0-t) ([4]; liver): 257 µM·h
Cmax ([4]; liver): 67.7 µM
Tmax ([4]; liver): 2 h
AUC(0-t) ([4]; lung): 74.7 µM·h
Cmax ([4]; lung): 14.6 µM
Tmax ([4]; lung): 2 h
AUC(0-t) ([4]; pancreas): 253 µM·h
Cmax ([4]; pancreas): 49.3 µM
Tmax ([4]; pancreas): 2 h
AUC(0-t) ([4]; plasma): 14.2 µM·h
Cmax ([4]; plasma): 4.27 µM
Tmax ([4]; plasma): 2 h
AUC(0-t) ([4]; tumer (tumor)): 37.3 µM·h
Cmax ([4]; tumer (tumor)): 5.42 µM
Tmax ([4]; tumer (tumor)): 8 h
IC50 [2]: 58.8 nM

SMILES: C=CCn1c(=O)c2cnc(Nc3ccc(N4CCC5(CCN(C)CC5)CC4)cc3)nc2n1-c1cccc(C2(F)COC2)n1 [Embodiment 43, 2-allyl-1-(6-(3-fluorooxetan-3-yl)pyridin-2-yl)-6-((4-(9-methyl-3,9-diazaspiro[5.5]undecan-3-yl)phenyl)amino)-1H-pyrazolo[3,4-d]pyrimidin-3(2H)-one]
clearance [1]: 23 mL/min/kg
AUC [1]: 5.59 µM·h
half-life [1]: 109 min
bioavailability [1]: 45.1%
IC50 [2]: 12.1 nM

SMILES: C=CCn1c(=O)c2cnc(Nc3ccc(N4CCC5(CCN(C)CC5)CC4)cc3)nc2n1-c1cccc(O[C@@H]2CCOC2)n1 [Embodiment 52, (R)-2-allyl-6-((4(9-methyl-3,9-diazaspiro[5.5]undecan-3-yl)phenyl)amino)-1-(6-((tetrahydrofuran-3-yl)oxy)pyridin-2-yl)-1H-pyrazolo[3,4-d]pyrimidin-3(2H)-one]
IC50 [2]: 71 nM

SMILES: C=CCn1c(=O)c2cnc(Nc3ccc(N4CCC5(CCN(C)CC5)CC4)cc3)nc2n1-c1cccc(OC2COC2)n1 [Embodiment 53, 2-allyl-6-((4(9-methyl-3,9-diazaspiro[5.5]undecan-3-yl)phenyl)amino)-1-(6-(oxetan-3-yloxy)pyridin-2-yl)-1H-pyrazolo[3,4-d]pyrimidin-3(2H)-one]
IC50 [2]: 63 nM

SMILES: C=CCn1c(=O)c2cnc(Nc3ccc(N4CCC5(CCN(C)CC5)CC4)cc3)nc2n1-c1cccc(OC2CCC2)n1 [Embodiment 54, 2-allyl-1-(6-cyclobutoxypyridin-2-yl)-6-((4-(9-methyl-3,9-diazaspiro[5.5]undecan-3-yl)phenyl)amino)-1H-pyrazolo[3,4-d]pyrimidin-3(2H)-one]
IC50 [2]: 57 nM

SMILES: C=CCn1c(=O)c2cnc(Nc3ccc(N4CCC5(CCN(C)CC5)CC4)cc3)nc2n1-c1cccc(O[C@H]2CCOC2)n1 [Embodiment 55, (S)-2-allyl-6-((4(9-methyl-3,9-diazaspiro[5.5]undecan-3-yl)phenyl)amino)-1-(6-((tetrahydrofuran-3-yl)oxy)pyridin-2-yl)-1H-pyrazolo[3,4-d]pyrimidin-3(2H)-one]
IC50 [2]: 90 nM

SMILES: C=CCn1c(=O)c2cnc(Nc3ccc(N4CCC5(CCN(C)CC5)CC4)cc3)nc2n1-c1cccc(N2CCN(C)C2=O)n1 [Embodiment 56]
IC50 [2]: 74 nM

Other lines, results leading:

IC50 [2]: 47 nM
SMILES: C=CCn1c(=O)c2cnc(Nc3ccc(N4CCC5(CCN(C)CC5)CC4)cc3)nc2n1-c1cccc(N2CCOC2=O)n1 [Embodiment 57, 3-(6-(2-allyl-6((4-(9-methyl-3,9-diazaspiro[5.5]undecan-3-yl)phenyl)amino)-3-oxo-2,3-dihydro-1H-pyrazolo[3,4-d]pyrimidin-1-yl)pyridin-2-yl)oxazolidin-2one]

IC50 [2]: 73 nM
SMILES: C=CCn1c(=O)c2cnc(Nc3ccc(N4CCC5(CCN(C)CC5)CC4)cc3)nc2n1-c1cccc(N2CCNC2=O)n1 [Embodiment 58, 2-allyl-6-((4(9-methyl-3,9-diazaspiro[5.5]undecan-3-yl)phenyl)amino)-1-(6-(2-oxo-1-imidazolidinyl)pyridin-2-yl)-1H-pyrazolo[3,4-d]pyrimidin-3(2H)-one]

IC50 [2]: 22.6 nM
SMILES: C=CCn1c(=O)c2cnc(Nc3ccc(N4CCC5(CCN(C)CC5)CC4)cc3)nc2n1-c1cccc(P(C)(C)=O)n1 [Embodiment 59, 2-allyl-1-(6-(dimethylphosphory)pyridin-2-yl)-6-((4-(9-methyl-3,9-diazaspiro[5.5]undecan-3-yl)phenyl)amino)-1H-pyrazolo[3,4-d]pyrimidin-3(2H)-one]

IC50 [2]: 14.8 nM
SMILES: C=CCn1c(=O)c2cnc(Nc3ccc(N4CCC5(CCN(CCF)CC5)CC4)cc3)nc2n1-c1cccc(C(C)(C)O)n1 [Embodiment 60]

IC50 [2]: 15.7 nM
SMILES: C=CCn1c(=O)c2cnc(Nc3ccc(N4CCC5(CCN(CC(F)F)CC5)CC4)cc3)nc2n1-c1cccc(C(C)(C)O)n1 [Embodiment 61]

IC50 [2]: 36.1 nM
SMILES: C=CCn1c(=O)c2cnc(Nc3ccc(N4CCC5(CCN(CCC#N)CC5)CC4)cc3)nc2n1-c1cccc(C(C)(C)O)n1 [Embodiment 62, 3-(9-(4((2-allyl-1(6-(2-hydroxypropan-2-yl)pyridin-2-yl)-3-oxo-2,3-dihydro-1H-pyrazolo[3,4-d]pyrimidin-6-yl)amino)phenyl)-3,9-diazaspiro[5.5]undecan-3-yl)propionitrile]
